Tested on: dunaliella tertiolecta
Test: growth inhibition test (72 h) using microalgae, ecotoxicity evaluation
Assay type: cell-based
Settings: 20° C.
Method: The used microalgae 1 is dunaliella tertiolecta, and when exposed to stress (toxicity), transforms the state from the original form 51 into a cyst form 61 and loses mobility.
Acetone was used as a toxic substance. In a test method using an exponential formula, the temperature was maintained at 20° C., and the Irradiation was continuously performed using a white fluorescent lamp with an illuminance of 6,000 to 7,000 lx.
Three replicated plots were inoculated with an initial concentration of 20,000 cells/mL, and the shaking speed was set to 100 r/min. Non-toxic filtered seawater containing nutrient medium was used as a dilution water, and growth inhibition was analyzed for 72 hours.
The experimental conditions in examples of the ecotoxicity evaluation analysis device 100 installed with the microalgae image analysis program therein according to the present invention and the analysis method using the same are shown in Table 2.
Referring to FIG. 5, in an example of the microalgae analysis method using the ecotoxicity evaluation analysis device 100 installed with the microalgae image analysis program therein according to the present invention, the performance of the technology of the present invention was verified using representative SR chamber and hemocytometer of the microalgae analysis method as controls. Here, the concentration of the microalgae 1 contained in the sample was analyzed every 24 hours. Cells were dyed in the two controls, whereas measurements were performed without dyeing the cells in the present technology. In the controls, a microscope (200×) was used, and a microalgae 1 counting was performed manually by an experienced expert.
Referring to FIG. 6, a growth inhibition test using microalgae 1 is performed to obtain a 50% effective concentration (EC50) of a toxic substance. The 50% effective concentration is treated as an important data base for various toxicity analysis. […]

In the case of `CC(C)=O` [acetone], the “50% effective concentration (EC50)” value (counting by SR chamber (manual, microscope, dyed cells)) is reported as 25.6 mL/L, the “50% effective concentration (EC50)” value (counting by developed analyzer (present invention technology, CMOS shadow image, no dyeing)) is reported as 24.2 mL/L and the “50% effective concentration (EC50)” value (counting by hemocytometer (manual, microscope, dyed cells)) is reported as 24.9 mL/L.

Source: patent US11526981B2, “Ecotoxicity evaluation analyzing device including microalgae image analysis program installed therein, and method thereof” (KOREA INSTITUTE OF OCEAN SCIENCE & TECHNOLOGY, priority 2017, dated 2022)
